Here are results for two compounds from paper PMC8596843, “Platinum Cyclooctadiene Complexes with Activity against Gram‐positive Bacteria” (Chemmedchem, 2021).

SMILES strings stand for the structures.

The test system of data set [1] is Staphylococcus aureus (ATCC 43300, MRSA). Put plainly: In vivo efficacy in MRSA-infected moth larvae. More on the design: species or system Galleria mellonella. The note with it: 24 h after drug administration; vs 10 % DMSO control; rifampicin 0.4 mg/mL, 10 µL. Here is the method: Ethics Committee was obtained for use of human blood for haemolysis studies (approval number […]
G. mellonella larvae were reared in controlled environmental room at Macquarie University, Sydney, Australia at 26 °C and 65% humidity with a 12-hours light/dark cycle. Larvae (~200 mg) were individually injected with 10 µL of chemical into the last right proleg using a 100 μL syringe (Hamilton Ltd). The […]
Each compound was dissolved in DMSO and diluted to final concentrations of 1 µM, 100 µM and 10 mM. We injected 5 larvae for each dilution of each compound.
Larvae injected with different dilutions of DMSO (10-1, 10-3 and 10-5) were included as negative controls.
Following injection, the larvae were incubated at 26 °C and monitored every 24 h for 4 days. Larval performance was assessed according to the G. mellonella Health Index Scoring System.[1] The experiments were repeated three separate times.
Galleria larvae (weighing between 200-250 mg) were infected with […] cells of Staphylococcus aureus (ATCC 43300, MRSA) (suspended in 10 µL PBS) and incubated at 37 °C. Two hours later, 10 µL compounds of either Pt1 or Pt2 (0.4 mM) in 10% DMSO was injected to the other proleg of the larvae.
Larvae injected with 10% DMSO and Rifampicin (0.4 mg/mL) were included as controls. […] Bacterial number was determined by drop plate method. […] Bacterial number was counted after incubation for 24 h.

Data set [2] relates to B. subtilis ATCC 6051 type strain. The experiment in a line: MIC in the presence of human serum (serum reversal). It counts as cell-based, Bacillus subtilis. Particulars: 10% serum. The source says: (§1) To obtain some initial insight into the apparent disparity between in vitro and in vivo results, we repeated the MIC experiments against four selected Gram‐positive strains in the presence of 10 % or 50 % human serum (Table S3). Pt1 and Pt2 maintained some antibacterial activity against B. subtilis in the presence of 10 % serum, but a complete loss of activity was observed against MRSA and GISA (50 % serum), and VRE (10 % serum). […] Systemic administration is therefore unlikely to be a suitable administration route for this class of compounds unless an alternative formulation that can prevent serum binding (e. g. by lipid or nanoparticle encapsulation) can be found. […] Further in vivo studies should therefore focus on more suitable disease models. […]
(§2) Antibacterial minimum inhibitory concentration (MIC) assay
(§3) concentration. (in-house screening)
(§4) Bacto Laboratories 212322) at 37 °C overnight.
(§5) The resultant mid-log phase cultures were diluted
(§6) Gram-negative and Gram-positive bacteria, respectively.
(§7) final concentration range of 0.8 – 100 µM.
(§8) inhibitors as positive control. […]

Data set [3] relates to Staphylococcus epidermidis NRS 60, VISE. Put plainly: Antibacterial MIC assay, Gram-positive panel. It counts as cell-based. Particulars: Table S1 panel; n=4. Here is the method: (§9) Smiles: C1C=CCCC(=CC1)C1=CCCC=CCC1.C[Pt]C.C[Pt]C […]
(§10) ATCC strains were sourced from the American Type Culture Collection and NRS strains from NARSA (Network on Antimicrobial Resistance in Staphylococcus aureus) via BEI Resources (www.beiresources.org), with clinical MSSA and MRSA isolates from Prof Graeme Nimmo, Queensland […]
(§11) Health Central Pathology. […]
as §2
(§12) Compound Assay Plate Preparation: Compounds were dissolved in DMSO at 10mM (CO-ADD screening) or 4 mM (follow up screening) and were plated in a 2-fold dose response from 20 to 0.156 µM or 200 to 0.006 µM respectively, with a maximum of 0.5% or 1% DMSO, final in the assay […]
(§13) plated in a 2-fold dose response from 200 to 0.006 µM, with a maximum of 1 % DMSO, final in the assay concentration. (in-house screening)
(§14) For all the bacterial assays, each strain was cultured in Cation-adjusted Mueller Hinton broth (CAMHB; Bacto Laboratories 212322) at 37 °C overnight. A sample of each culture was then diluted 40-fold in fresh CAMHB and incubated at 37 °C for 1.5–3 h. The resultant mid-log phase cultures were diluted with CAMHB (CFU mL−1 measured by OD600), then added to each well of the compound-containing plates (384-well non-binding surface (NBS) plates; Corning CLS3640), giving a cell density of 5 × 10^5 CFU mL−1 and a total volume of 50 μL. Plates were covered and incubated at 37 °C for 18 h without shaking. Inhibition of bacterial growth was determined measuring absorbance at 600 nm (OD600), using media only as negative control and bacteria without inhibitors as positive control. MIC values were determined as the lowest concentration at which the growth was inhibited at ≥80%. Colistin sulfate (Sigma C4461) and vancomycin HCl (Sigma 861987) were used as internal controls on each plate for Gram-negative and Gram-positive bacteria, respectively. […]

Data set [4] has as its system Staphylococcus epidermidis ATCC 14990, type strain. Put plainly: Antibacterial MIC assay, Gram-positive panel. Particulars: Table S1 panel; n=4. Format: cell-based. Here is the method:
as §9, §10, §11, §2, §12, §13, §14

For data set [5], the system named is Enterococcus faecium ATCC 51559, MDR, VRE (VanA). Put plainly: Antibacterial MIC assay, Gram-positive panel. It counts as cell-based. The note with it: Table S1 panel; n=2. Here is the method: as §9, §10, §11, §2, §12, §13, §14
The subject of data set [6] is Enterococcus faecium Clinical Isolate, VRE (VanA). Put plainly: Antibacterial MIC assay, Gram-positive panel. It counts as cell-based. The note with it: Table S1 panel; n=4. Here is the method: as §9, §10, §11, §2, §12, §13, §14
For data set [7], the system named is Enterococcus faecium ATCC 35667, type strain. Put plainly: Antibacterial MIC assay, Gram-positive panel. Format: cell-based. Particulars: Table S1 panel; n=4. Here is the method:
as §9, §10, §11, §2, §12, §13, §14

Data set [8] has as its system Enterococcus faecalis Clinical Isolate, VRE (VanB). Put plainly: Antibacterial MIC assay, Gram-positive panel. It counts as cell-based. Particulars: Table S1 panel; n=4. Here is the method:
as §9, §10, §11, §2, §12, §13, §14

Data set [9] concerns Enterococcus faecalis ATCC 29212, control strain. The experiment in a line: Antibacterial MIC assay, Gram-positive panel. It counts as cell-based. Particulars: Table S1 panel; n=4. Here is the method:
as §9, §10, §11, §2, §12, §13, §14

Data set [10] has as its system Staphylococcus aureus ATCC 43300 (MRSA). The experiment in a line: microbe, parasite or virus in culture. It counts as cell-based. Here is the method:
(§15) All compounds submitted to CO‐ADD are initially screened against five bacterial strains (Staphylococcus aureus (MRSA), E. coli, Klebsiella pneumoniae, Pseudomonas aeruginosa, Acinetobacter baumannii) and two fungal strains (Candida albicans, Cryptococcus neoformans) at a single concentration (32 μg/mL or 20 μM) performed as a high‐throughput primary screening.[[11], [17a]] Any compounds that show significant growth inhibition against any of the tested strains at this step are then evaluated in a dose‐response assay against these same strains. […]
as §9, §10, §11, §2, §12, §13, §14

For data set [11], the system named is Pseudomonas aeruginosa ATCC 27853. The experiment in a line: Antibacterial MIC assay. It counts as cell-based. Particulars: CO‐ADD screening. Here is the method:
as §15, §9, §10, §11, §2, §12, §13, §14

Data set [12] relates to Acinetobacter baumannii ATCC 19606. The experiment in a line: Antibacterial MIC assay. Format: cell-based. The note with it: CO‐ADD screening. Here is the method: as §15, §9, §10, §11, §2, §12, §13, §14
The test system of data set [13] is Escherichia coli ATCC 25922. The experiment in a line: Antibacterial MIC assay. Format: cell-based. The note with it: CO‐ADD screening. Here is the method: as §15, §9, §10, §11, §2, §12, §13, §14
Data set [14] has as its system HEK-293 ATCC CRL-1573 human embryonic kidney cells. Format: cell-based. Here is the method:
As part of the CO‐ADD screening, all compounds that show any activity against a microbial strain are evaluated for their cytotoxicity against human embryonic kidney cells (HEK‐293) and for haemolysis against human red blood cells. None of the compounds tested for cytotoxicity (Pt1‐9 and Pd1) caused any significant cell death up to concentrations of 100 μM. […] We have also observed higher IC50 values for the methylated complexes Pt3 and Pt4 against HeLa cells in previous work.[16] […]
(§16) inhibitors as positive control.
(§17) Tamoxifen (Sigma T5648) was used
(§18) as internal control on each plate.
in a Neubauer haemocytometer. […]

For data set [15], the system named is HT‐29 colon carcinoma. Details: method as in earlier work. The note with it: ref 14a, read-out: IC50 cytotoxicity; cited from earlier work.
The test system of data set [16] is human red blood cells. Put plainly: Haemolysis assay. It counts as cell-based. Here is the method:
As part of the CO‐ADD screening, all compounds that show any activity against a microbial strain are evaluated for their cytotoxicity against human embryonic kidney cells (HEK‐293) and for haemolysis against human red blood cells. None of the compounds tested for cytotoxicity (Pt1‐9 and Pd1) caused any significant cell death up to concentrations of 100 μM. […] We have also observed higher IC50 values for the methylated complexes Pt3 and Pt4 against HeLa cells in previous work.[16]
as §5, §6, §7, §16, §17, §18
in a Neubauer haemocytometer.
incubated for 1 h at 37 °C, without shaking.
HC10 and HC50 (concentration at which 10%
for top, bottom and slope using Prism 8. […]

Data set [17] concerns E. faecium ATCC 51559 MDR, VRE. The experiment in a line: MIC in the presence of human serum (serum reversal). Format: cell-based, Enterococcus faecium. Particulars: 10% serum.
Text: as §1, §2, §3, §4, §5, §6, §7, §8

For data set [18], the system named is Staphylococcus aureus ATCC 25923, MSSA. The experiment in a line: Antibacterial MIC assay, Gram-positive panel. Format: cell-based. The note with it: Table S1 panel; n=4.
Text: (§19) Bis(dimethyl-η4)-((1Z,1'E,5Z,5'E)-(1,1'-bi(cyclooctadiene))diplatinum(II) (Pt14) Smiles: C1C=CCCC(=CC1)C1=CCCC=CCC1.C[Pt]C.C[Pt]C
(§20) InChIKey: PHIWIZAHOBWKFJ-HPCBIOCFSA-N
(§21) Link to selected data that was repeated to approve the identity of the compounds: https://dx.doi.org/10.14272/PHIWIZAHOBWKFJ-HPCBIOCFSA-N.1
as §10, §11, §2, §12, §13, §14

Data set [19] concerns Staphylococcus aureus VRS 1, VRSA (VanA). The experiment in a line: Antibacterial MIC assay, Gram-positive panel. Format: cell-based. Particulars: Table S1 panel; n=4.
Text: as §19, §20, §21, §10, §11, §2, §12, §13, §14

Data set [20] deals with Cryptococcus neoformans H99 ATCC 208821. The experiment in a line: Antifungal MIC (CO-ADD screening). Format: cell-based. Here is the method:
as §20
(§22) Health Central Pathology. Candida albicans (ATCC 90028, NCCLS 11), Cryptococcus neoformans
as §2, §3, §4

In data set [21] the test system is Candida albicans ATCC 90028. Put plainly: Antifungal MIC (CO-ADD screening). Format: cell-based. Here is the method: as §20, §22, §2, §3, §4
Data set [22] deals with S. aureus NRS 17 GISA. The experiment in a line: MIC in the presence of human serum (serum reversal). The note with it: 50% serum. It counts as cell-based, Staphylococcus aureus.
Text: as §1, §2, §3, §4, §5, §6, §7, §8

Data set [23] deals with S. aureus ATCC 43300 MRSA. The data set is described as above. It counts as cell-based, Staphylococcus aureus. The note with it: 50% serum.
Text: as §1, §2, §3, §4, §5, §6, §7, §8

In data set [24] the test system is Klebsiella pneumoniae ATCC 700603 (ESBL SHV‐18). Here is the method:
as §15, §9, §10, §11, §2, §12, §13, §14

For data set [25], the system named is MCF‐7 breast cancer cells. Details: method as in earlier work. The note with it: ref 14a, read-out: IC50 cytotoxicity; cited from earlier work.

For the compound `CO[C@H]1/C=C/O[C@@]2(C)Oc3c(C)c(O)c4c(O)c(c(/C=N/N5CCN(C)CC5)c(O)c4c3C2=O)NC(=O)/C(C)=C\C=C\[C@H](C)[C@H](O)[C@@H](C)[C@@H](O)[C@@H](C)[C@H](OC(C)=O)[C@@H]1C` [Rifampicin], the “reduction in CFU (bacterial load per larva)” value in data set [1] was 2 log.
Consider `C1=CCCC=CCC1.[CH3][Pt][Cl]` [Pt4], for which the MIC in the presence of human serum in [2], in data set [17], in data set [22] and in data set [23] was > 200 µM each time. The MIC in data set [3] was 100 µM; in [4], 50 µM; in data set [5] it was 25 µM; in data set [6] it was 200 µM; in data set [7], > 200 µM; in data set [8], > 200 µM. Moreover, the MIC in data set [9] was > 200 µM; in data set [10] (Table S1 panel, n=2) it was 6.25 µM; in data set [18], 100 µM; in data set [19], > 200 µM. In addition, the “MIC Sa” value in data set [10] (CO‐ADD screening) is >20 µM. In addition, in [11], the “MIC Pa” value is >20 µM. Moreover, the “MIC Ab” value in data set [12] was >20 µM. In data set [13], the “MIC Ec” value was >20 µM. For the same compound, the CC50 in data set [14] was > 100 µM. Besides, the IC50 in data set [15] was 8.3 ± 3 µM; in data set [25], 11.2 ± 1.4 µM. Besides, the “Haemolysis HC10” value in [16] (concentration inducing 10 % haemolysis) turned out to be 10.23 µM. In addition, in data set [16] (concentration inducing 50 % haemolysis), the “Haemolysis HC50” value came to 52.11 µM. Further, the “MIC Cn” value in data set [20] fell in the range of 10 to 20 µM. Besides, the “MIC Ca” value in data set [21] is 5 to 10 µM. Further, the “MIC Kp” value in data set [24] is >20 µM.
